Measured values published in publication PMC11032351, “Epigenetic modulation through BET bromodomain inhibitors as a novel therapeutic strategy for progranulin-deficient frontotemporal dementia” (Scientific Reports, 2024).
Read-outs that look alike come from different tables or passages of the source.

Columns and labels:
[1] = Pharmacokinetics in CD-1 mice, IV; type: in vivo; details: for Auclast / Cmax / MRT inf / Tmax / half-life / AUC(0-t) / clearance / Vd: intravenously 5 mg/kg; for blood–brain barrier crossing (in words) / clearance (in words): IV 5 mg/kg; for Cmax / MRT inf / Tmax / half-life / AUC(0-t) / clearance / Vd: male, mouse, iv; for half-life: read-out: Terminal t1/2; for Vd: read-out: Vss
Description: Analysis of pharmacokinetic parameters of 18A and 18B was performed by the Preclinical Pharmacology Core Lab (UT Southwestern Medical Center). Animal work described in this manuscript has been approved and conducted under the oversight of the UT Southwestern Institutional Animal Care and Use Committee and were carried out in accordance with relevant guidelines and regulations. UT Southwestern uses the “Guide for the Care and Use of Laboratory Animals” when establishing animal research standards. All methods are reported in accordance with ARRIVE guidelines. Compounds were suspended in 10% DMSO/20% PEG400/70% (30% HPβCD in water) at 0.484 mg/mL (18A) or at 0.5 mg/mL (18B). Compounds were administered to male CD1 mice (Charles River Laboratories, Wilmington, MA) IV via the tail vein at 5 mg/kg (0.30 mL dose volume for 18A, 0.35 mL dose volume for 18B). Mice were randomly assigned to time point groups and all investigators were aware of these assignments. After inhalation overdose of CO2, blood and tissues were collected from three mice per timepoint, at 5, 15, 30, 60, 240, 360, and 480 min post dosing, such that a mean concentration and standard deviation about the mean could be reported. Blood and tissues were also collected from mice dosed with Vehicle only at 480 min. Blood was collected using the anticoagulant ACD (acidified citrate dextrose) and plasma was isolated from the blood by centrifugation at 4 °C, 9600 × g for 10 min. After rinsing with PBS, tissues were weighed, snap-frozen in liquid nitrogen and stored at − 80 °C until processing. Brain was homogenized in a three-fold volume of PBS (weight by volume). Plasma and brain homogenates were extracted using a two-fold volume of methanol containing 0.15% formic acid and 37.5 ng/ml of an internal standard, n-benzylbenzamide (Sigma, St. Louis, MO). Samples were vortexed for 15 s, incubated at RT for 10 min and then centrifuged at 16,100 × g for 5 min at 4 °C. The supernatant was spun a second time and then analyzed by LC–MS/MS using a Sciex (Framingham, MA) 4000QTRAP® (positive ESI, multiple-reaction monitoring mode) after separation on an Agilent (Santa Clara, CA) C18 XDB column (5 micron packing, 50 × 4.6 mm size). The following separation gradient was used (Buffer A: water with 0.1% formic acid; Buffer B: MeOH with 0.1% formic acid): 0–1 min 5% B, 1–1.5 min gradient to 100% B, 1.5–3 min 100% B, 3–3.2 min gradient to 5% B, 3.2–4.5 min 5% B. For 18A, the transition (m/z) of 336.0/305.0 was monitored (retention time: 2.08 min); for 18B, the transition (m/z) of 336.1/169.0 was monitored (retention time: 2.09 min). The transition 212.1/91.1 (retention time 2.05 min) was monitored for the internal standard, n-benzylbenzamide. Tissues and plasma from untreated mice were used as controls to establish background noise for LC–MS/MS analysis of compound levels. Pharmacokinetic parameters were calculated using sparse sampling and the noncompartmental analysis tool in WinNonlin (Certara Corp, Princeton, NJ) for plasma and brain. Because mice were not perfused prior to collection of brain, the amount of compound estimated to be in the vasculature of the brain was subtracted using the measured plasma concentration and literature values for the volume of residual blood (30 µl/g tissue) in the brain Kwon[102].

[2] = system: PGRN-Luc; assay: HMC3 PGRN-luciferase reporter assay; type: cell-based, human; details: HMC3 PGRN-Luc cells, 8 h of treatment
Description: HMC3 PGRN-Luc cells were trypsinized from confluent T-75 flasks and re-suspended in HMC-3 media at 150,000–200,000 cells/mL. 30 µL of cell suspension was then seeded onto each well of black, 384-well clear-bottom plates (Corning 3712) using the Multidrop Combi (Thermo Fisher). Cells were allowed to adhere to plates in the incubator at 37 °C/5% CO2 for 6–8 h. After 6–8 h, compounds were added to each well using the D300e (Tecan) compound dispenser, and all wells were DMSO-normalized (0.3%). Cells were allowed to incubate with compounds for indicated timeframes.
Plates were removed from the incubator and allowed to cool to RT. 15 µL of media was removed from each well using a multichannel pipette and added to separate Corning 3712 plates for a read of “secreted” PGRN. To both the media-containing plates as well as the cell-containing plates (with 15 µL media remaining) is then added 15 µL of active luminescence reagent (Thermo 18,636) which was generated according to manufacturer’s instructions. Plates were allowed to nutate at RT for 15 min prior to reading using the EnVision (PerkinElmer). For calculation of the internal PGRN-Luc signal, the secreted signal (15 µL media) was subtracted from the signal of the cell-containing plates (with 15 µL media remaining). For “total” PGRN-Luc signal, a sample of media was not aliquoted into a separate plate, and instead, 30 µL of active luminescence reagent was added directly to each well.
For the mivebresib and panobinostat time-course experiment, the above procedure was followed, with the exception that cells were seeded at 66,600 cells/mL in 30 µL media, and allowed to grow overnight prior to compound addition for the indicated timeframes.

In the case of Cn1ccc2c(-c3cccnc3Oc3ccc(F)cc3)c[nH]c2c1=O [Compound 18B, 3-[2-(4-fluorophenoxy)pyridin-3-yl]-6-methyl-1,6-dihydro-7H-pyrrolo[2,3-c]pyridin-7-one], the Auclast ([1]; Brain) is reported as 31579 ng·min/g, the “blood–brain barrier crossing (in words)” value [1] is reported as “readily cross the blood–brain barrier” and the “clearance (in words)” value [1] is reported as “cleared quite rapidly”. It also gave a Cmax ([1]; Brain) of 1690 ng/g, an MRT inf ([1]; Brain) of 17.6 min and a Tmax ([1]; Brain) of 5 min. The half-life ([1]; Brain) was 73 min, the AUC(0-t) ([1]; Plasma) was 511 ng·h/mL and the Cmax ([1]; Plasma) was 1620 ng/mL. The MRT inf ([1]; Plasma) was 25.8 min, the Tmax ([1]; Plasma) was 5 min and the clearance ([1]; Plasma) was 5.61 mL/min. For the same compound, the half-life ([1]; Plasma) was 140 min and the Vd ([1]; Plasma) was 0.145 L.
For Cn1cc(-c2cccnc2Oc2ccc(F)cc2)c2cc[nH]c2c1=O [Compound 18A, 4-(2-(4-fluorophenoxy)pyridin-3-yl)-6-methyl-1H-pyrrolo[2,3-c]pyridin-7(6H)-one], the Auclast ([1]; Brain) was 63285 ng·min/g, the “blood–brain barrier crossing (in words)” value [1] was “readily cross the blood–brain barrier” and the “clearance (in words)” value [1] was “cleared quite rapidly”. For the same compound, the Cmax ([1]; Brain) was 2970 ng/g, the MRT inf ([1]; Brain) was 16.7 min and the Tmax ([1]; Brain) was 5 min. The half-life ([1]; Brain) was 30 min, the AUC(0-t) ([1]; Plasma) was 658 ng·h/mL and the Cmax ([1]; Plasma) was 1780 ng/mL. For the same compound, the MRT inf ([1]; Plasma) was 17.9 min, the Tmax ([1]; Plasma) was 5 min and the clearance ([1]; Plasma) was 3.67 mL/min. For the same compound, the half-life ([1]; Plasma) was 27 min and the Vd ([1]; Plasma) was 0.067 L.
In the case of CCS(=O)(=O)Nc1ccc(Oc2ccc(F)cc2F)c(-c2cn(C)c(=O)c3[nH]ccc23)c1 [mivebresib], the “total (combined internal and secreted) PGRN-Luc signal” value [2] is reported as “to the same extent as did panobinostat”.
